Test results reported in patent US20230080144A1, “REAL-TIME FLUORESCENCE IMAGING SENSOR FOR MEASURING GLUTATHIONE IN ENDOPLASMIC RETICULUM AND METHOD USING SAME” (CELL2IN, INC., priority 2019, published 2023).

Test system: UC-MSCs
Experiment: Cytotoxicity test (EZ-cytox)
Format: cell-based
Details: for IC50: 24 hours treatment at 5, 10, 20 and 40 μM, absorbance at 450 nm
Protocol: (1) UC-MSCs (4×10^3 cells/well) were cultured in 96-well dishes for 24 hours. (2) The cells were treated with […] of each of ER-FT derivative compounds (Formulas IV to VII) at concentrations of 5, 10, 20 and 40 μM and then incubated at 37° C. for 24 hours. (3) 10 μl of 10× EZ-cytox was added to each well, followed by incubation for 3 hours. (4) The absorbance at 450 nm was measured using a plate reader (reference wavelength: 600 to 650 nm).

Structure (SMILES)	toxicity (comparison among Formulas IV to VII) (24 hours)	IC50 [µM]
Cc1ccc(S(=O)(=O)NCCNC(=O)C2CCN(C(=O)C(C#N)=Cc3cc4cc5c6c(c4oc3=O)CCCN6CCC5)CC2)cc1 [Formula IV]	lowest toxicity	43.4
N#CC(=Cc1cc2cc3c4c(c2oc1=O)CCCN4CCC3)C(=O)N1CCC(C(=O)NCCCOCCOCCOCCCNC(=O)c2c(F)c(F)c(F)c(F)c2F)CC1 [Formula VII]	–	13.3
N#CC(=Cc1cc2cc3c4c(c2oc1=O)CCCN4CCC3)C(=O)N1CCC(C(=O)NCCNC(=O)c2c(F)c(F)c(F)c(F)c2F)CC1 [Formula VI]	–	33.4
Cc1ccc(S(=O)(=O)NCCCOCCOCCOCCCNC(=O)C2CCN(C(=O)C(C#N)=Cc3cc4cc5c6c(c4oc3=O)CCCN6CCC5)CC2)cc1 [Formula V]	–	36.4
